Values of other authors, collected in patent publication US8729024B2, “Targeted delivery of pharmaceutical compounds” (The Resesarch Foundation of State University of New York, priority 2006, dated 2014).

Test system: animal models of Duchenne muscular dystrophy (DMD), multiple sclerosis, myasthenia gravis, hearing loss and traumatic nerve injury

CC(=O)N[C@@H](CC(C)C)C(=O)N[C@@H](CC(C)C)C(=O)N[C@H](C=O)CCCNC(=N)N [leupeptin]
therapeutic effect in animal models: therapeutic benefit
